Data reported in patent publication US10696651B2, “Heterocyclic compound” (Takeda Pharmaceutical Company Limited, priority 2016, dated 2020).
Counter-ions that a name gives are not always drawn.

target: T1, human GCN2 full-length protein (Homo sapiens, UniProt Q9P2K8); experiment: GCN2 enzyme inhibition assay (LanthaScreen TR-FRET); assay type: biochemical; conditions: GCN2 enzyme inhibitory activity at compound concentration of 3 μM; Table 3-1; read-out: inhibitory rate
T1 construct: purchased Carna Biosciences, Inc
T1 sequence (Q9P2K8 whole entry): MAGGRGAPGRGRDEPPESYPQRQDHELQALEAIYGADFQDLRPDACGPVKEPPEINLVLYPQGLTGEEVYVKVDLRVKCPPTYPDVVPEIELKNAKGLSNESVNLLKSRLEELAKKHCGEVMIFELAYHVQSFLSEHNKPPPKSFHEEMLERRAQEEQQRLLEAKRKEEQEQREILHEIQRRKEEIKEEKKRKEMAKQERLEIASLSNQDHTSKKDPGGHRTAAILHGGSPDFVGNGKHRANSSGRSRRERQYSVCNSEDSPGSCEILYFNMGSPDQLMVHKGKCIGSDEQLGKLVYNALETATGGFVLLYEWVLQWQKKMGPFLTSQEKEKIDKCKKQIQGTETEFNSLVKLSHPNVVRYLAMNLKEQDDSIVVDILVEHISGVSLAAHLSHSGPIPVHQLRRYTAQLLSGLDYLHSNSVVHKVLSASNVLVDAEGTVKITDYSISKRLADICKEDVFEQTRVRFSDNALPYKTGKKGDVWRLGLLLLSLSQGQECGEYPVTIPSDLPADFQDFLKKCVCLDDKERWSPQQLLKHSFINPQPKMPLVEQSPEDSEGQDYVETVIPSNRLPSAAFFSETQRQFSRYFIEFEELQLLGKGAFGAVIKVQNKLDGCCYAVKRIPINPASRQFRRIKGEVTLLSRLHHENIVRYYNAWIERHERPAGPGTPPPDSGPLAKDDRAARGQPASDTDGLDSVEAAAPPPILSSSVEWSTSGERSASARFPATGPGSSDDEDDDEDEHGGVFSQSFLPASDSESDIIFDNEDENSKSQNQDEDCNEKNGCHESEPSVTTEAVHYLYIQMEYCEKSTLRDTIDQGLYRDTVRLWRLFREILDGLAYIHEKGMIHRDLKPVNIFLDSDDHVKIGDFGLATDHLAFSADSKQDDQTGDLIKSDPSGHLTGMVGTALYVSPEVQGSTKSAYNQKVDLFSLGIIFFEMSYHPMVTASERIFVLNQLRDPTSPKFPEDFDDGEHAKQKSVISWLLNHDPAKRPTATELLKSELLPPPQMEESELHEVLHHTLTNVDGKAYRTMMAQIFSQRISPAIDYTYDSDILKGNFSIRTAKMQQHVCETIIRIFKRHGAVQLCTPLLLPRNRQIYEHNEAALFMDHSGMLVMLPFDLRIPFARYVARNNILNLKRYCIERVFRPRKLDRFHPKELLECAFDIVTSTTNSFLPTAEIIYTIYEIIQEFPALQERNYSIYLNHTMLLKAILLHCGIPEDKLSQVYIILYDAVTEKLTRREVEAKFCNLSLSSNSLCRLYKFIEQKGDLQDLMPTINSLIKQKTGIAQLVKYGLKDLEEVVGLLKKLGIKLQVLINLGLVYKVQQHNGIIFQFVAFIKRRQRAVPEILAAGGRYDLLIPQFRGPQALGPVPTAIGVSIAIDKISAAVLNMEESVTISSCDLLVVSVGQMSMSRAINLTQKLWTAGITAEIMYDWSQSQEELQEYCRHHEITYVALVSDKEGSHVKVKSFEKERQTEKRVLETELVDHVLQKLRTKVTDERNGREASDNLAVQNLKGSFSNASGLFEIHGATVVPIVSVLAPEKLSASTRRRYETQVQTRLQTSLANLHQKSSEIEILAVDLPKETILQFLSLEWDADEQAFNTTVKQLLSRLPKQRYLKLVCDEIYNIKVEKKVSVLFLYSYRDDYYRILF
Protocol: GCN2 enzyme was preserved at -70° C. and used. The GCN2 enzyme inhibitory activity of the test compound was measured by the LanthaScreenTR-FRET (Time Resolved Fluorescence Resonance Energy Transfer) method (manufactured by ThermoFisher). […] Then, GCN2 enzyme solution diluted with the assay buffer was added by 2 μL to each well. The enzyme solution was not added to a part of the wells to give a control group. After incubation at room temperature for 1 hr, 570 μM ATP solution containing 390 nM […] physiological protein substrate (ThermoFisher) was added by 2 μL. After reaction at room temperature for 1 hr, TR-FRET Dilution Buffer (ThermoFisher) containing 4 nM Terbium-labeled anti-elF2alpha [[…]] antibody (ThermoFisher) dissolved therein was added by 2 μL to each well. After standing at room temperature for 1 hr, time decomposition fluorescence measurement was performed on platereader Envision (manufactured by PerkinElmer).

SMILES | inhibition at 3 µM [%]
Cc1ncc(Cl)cc1S(=O)(=O)Nc1ccc(F)c(C#Cc2cnc(NC(C)C)nc2)c1F [Example 105, 5-chloro-N-(2,4-difluoro-3-((2-(isopropylamino)pyrimidin-5-yl)ethynyl)phenyl)-2-methylpyridine-3-sulfonamide] | 100
Nc1ncc(C#Cc2c(F)ccc(NS(=O)(=O)c3cc(Cl)ccc3OC(F)(F)F)c2F)cn1 [Example 12, N-(3-((2-aminopyrimidin-5-yl)ethynyl)-2,4-difluorophenyl)-5-chloro-2-(trifluoromethoxy)benzenesulfonamide] | 99
Cc1ccc(C)c(S(=O)(=O)Nc2ccc(F)c(C#Cc3cnc4[nH]ncc4c3)c2F)c1 [Example 112, N-(2,4-difluoro-3-(1H-pyrazolo[3,4-b]pyridin-5-ylethynyl)phenyl)-2,5-dimethylbenzenesulfonamide TFA Salt] | 99
COc1ncc(Cl)cc1S(=O)(=O)Nc1ccc(F)c(C#Cc2cnc(N)nn2)c1F [Example 109, N-(3-((3-amino-1,2,4-triazin-6-yl)ethynyl)-2,4-difluorophenyl)-5-chloro-2-methoxypyridine-3-sulfonamide] | 99
COc1ncc(Cl)cc1S(=O)(=O)Nc1ccc(F)c(C#Cc2cnc(NC(C)(C)CO)nc2)c1F [Example 108, 5-chloro-N-(2,4-difluoro-3-((2-((1-hydroxy-2-methylpropan-2-yl)amino)pyrimidin-5-yl)ethynyl)phenyl)-2-methoxypyridine-3-sulfonamide] | 99
COc1ncc(Cl)cc1S(=O)(=O)Nc1ccc(F)c(C#Cc2cnc(NCC(C)(C)O)nc2)c1F [Example 107, 5-chloro-N-(2,4-difluoro-3-((2-((2-hydroxy-2-methylpropyl)amino)pyrimidin-5-yl)ethynyl)phenyl)-2-methoxypyridine-3-sulfonamide] | 99
Nc1ncc(C#Cc2c(F)ccc(NS(=O)(=O)c3cc(Cl)ccc3Cl)c2F)c(N)n1 [Example 34, 2,5-dichloro-N-(3-((2,4-diaminopyrimidin-5-yl)ethynyl)-2,4-difluorophenyl)benzenesulfonamide] | 98
COc1ncc(Cl)cc1S(=O)(=O)Nc1ccc(F)c(C#Cc2cnc(N)c(C)n2)c1F [Example 110, N-(3-((5-amino-6-methylpyrazin-2-yl)ethynyl)-2,4-difluorophenyl)-5-chloro-2-methoxypyridine-3-sulfonamide] | 100
Nc1ncc(C#Cc2c(F)ccc(NS(=O)(=O)c3cc(Cl)cc(Cl)c3)c2F)cn1 [Example 27, N-(3-((2-aminopyrimidin-5-yl)ethynyl)-2,4-difluorophenyl)-3,5-dichlorobenzenesulfonamide] | 95
COc1ncc(Cl)cc1S(=O)(=O)Nc1cccc(C#Cc2cnc(N)nc2)c1F [Example 123, N-(3-((2-aminopyrimidin-5-yl)ethynyl)-2-fluorophenyl)-5-chloro-2-methoxypyridine-3-sulfonamide] | 100
Nc1ncc(C#Cc2c(F)ccc(NS(=O)(=O)c3cc(Cl)cc4c3OCC4)c2F)cn1 [Example 9, N-(3-((2-aminopyrimidin-5-yl)ethynyl)-2,4-difluorophenyl)-5-chloro-2,3-dihydro-1-benzofuran-7-sulfonamide] | 99
Cc1ncc(Cl)cc1S(=O)(=O)Nc1ccc(F)c(C#Cc2cnc(N)nc2)c1F [Example 3, N-(3-((2-aminopyrimidin-5-yl)ethynyl)-2,4-difluorophenyl)-5-chloro-2-methylpyridine-3-sulfonamide] | 99
Nc1ncc(C#Cc2c(F)ccc(NS(=O)(=O)c3cc(Cl)ccc3OC(F)F)c2F)cn1 [Example 21, N-(3-((2-aminopyrimidin-5-yl)ethynyl)-2,4-difluorophenyl)-5-chloro-2-(difluoromethoxy)benzenesulfonamide] | 99
COc1ncc(Cl)cc1S(=O)(=O)Nc1ccc(F)c(C#Cc2cnc(NC(C)C)nc2)c1F [Example 106, 5-chloro-N-(2,4-difluoro-3-((2-(isopropylamino)pyrimidin-5-yl)ethynyl)phenyl)-2-methoxypyridine-3-sulfonamide] | 99

Further lines, results first:

inhibition at 3 µM [%] | SMILES
99 | O=S(=O)(Nc1ccc(F)c(C#Cc2cnc(NCCO)nc2)c1F)c1cc(Cl)ccc1Cl [Example 36, 2,5-dichloro-N-(2,4-difluoro-3-((2-((2-hydroxyethyl)amino)pyrimidin-5-yl)ethynyl)phenyl)benzenesulfonamide TFA Salt]
100 | O=S(=O)(Nc1ccc(F)c(C#Cc2cnc(NC3CCOC3)nc2)c1F)c1cc(Cl)ccc1Cl (stereo not drawn) [Example 16, 2,5-dichloro-N-(2,4-difluoro-3-((2-(tetrahydrofuran-3-ylamino)pyrimidin-5-yl)ethynyl)phenyl)benzenesulfonamide TFA Salt]
99 | N#Cc1ccc(Cl)cc1S(=O)(=O)Nc1ccc(F)c(C#Cc2cnc(N)nc2)c1F [Example 29, N-(3-((2-aminopyrimidin-5-yl)ethynyl)-2,4-difluorophenyl)-5-chloro-2-cyanobenzenesulfonamide]
98 | CCNc1ncc(C#Cc2c(F)ccc(NS(=O)(=O)c3cc(Cl)ccc3Cl)c2F)cn1 [Example 30, 2,5-dichloro-N-(3-((2-(ethylamino)pyrimidin-5-yl)ethynyl)-2,4-difluorophenyl)benzenesulfonamide TFA Salt]
99 | O=S(=O)(Nc1ccc(F)c(C#Cc2cnc(NC3CC3)nc2)c1F)c1cc(Cl)ccc1Cl [Example 11, 2,5-dichloro-N-(3-((2-(cyclopropylamino)pyrimidin-5-yl)ethynyl)-2,4-difluorophenyl)benzenesulfonamide TFA Salt]
95 | Nc1ncc(C#Cc2c(F)ccc(NS(=O)(=O)c3cc(C(F)(F)F)ccc3Cl)c2F)cn1 [Example 35, N-(3-((2-aminopyrimidin-5-yl)ethynyl)-2,4-difluorophenyl)-2-chloro-5-(trifluoromethyl)benzenesulfonamide]
99 | O=S(=O)(Nc1ccc(F)c(C#Cc2cnc(N[C@H]3CC[C@H](O)CC3)nc2)c1F)c1cc(Cl)ccc1Cl [Example 32, 2,5-dichloro-N-(2,4-difluoro-3-((2-((trans-4-hydroxycyclohexyl)amino)pyrimidin-5-yl)ethynyl)phenyl)benzenesulfonamide TFA Salt]
99 | O=S(=O)(Nc1ccc(F)c(C#Cc2cnc(NCCCO)nc2)c1F)c1cc(Cl)ccc1Cl [Example 28, 2,5-dichloro-N-(2,4-difluoro-3-((2-((3-hydroxypropyl)amino)pyrimidin-5-yl)ethynyl)phenyl)benzenesulfonamide TFA Salt]
99 | Nc1ncc(C#Cc2c(F)ccc(NS(=O)(=O)c3cc(Cl)ccc3C(F)(F)F)c2F)cn1 [Example 6, N-(3-((2-aminopyrimidin-5-yl)ethynyl)-2,4-difluorophenyl)-5-chloro-2-(trifluoromethyl)benzenesulfonamide]

same assay, conditions: GCN2 enzyme inhibitory activity at compound concentration of 3 μM; Table 3-2; read-out: inhibitory rate

inhibition at 3 µM [%] | SMILES
99 | Nc1ncc(C#Cc2c(F)ccc(NS(=O)(=O)c3cc(Cl)cnc3C(F)(F)F)c2F)cn1 [Example 136, N-(3-((2-aminopyrimidin-5-yl)ethynyl)-2,4-difluorophenyl)-5-chloro-2-(trifluoromethyl)pyridine-3-sulfonamide]
